Experimental data published in patent US8828695B2, “Method for producing butanol using two-phase extractive fermentation” (Butamax Advanced Biofuels LLC, priority 2008, dated 2014).

How the values were obtained:
[1] = tested on: Saccharomyces cerevisiae BY4741; test: Biocompatibility of solvents, shake flask studies (OD600 and glucose); type: cell-based; conditions: for Biocompatibility of the solvent (growth and glucose utilization versus control without solvent): S. cerevisiae BY4741, 25 mL solvent per 100 mL; for Glucose / OD600: 75 mL seed culture + 25 mL solvent, 30° C.
Experimental: The biocompatibility of each solvent was determined using shake flask studies with Saccharomyces cerevisiae BY4741 obtained from ATCC. Seed shake flasks containing 700 mL of yeast extract/peptone/dextrose (YPD) medium were inoculated with 200 μL of S. cerevisiae BY4741 inoculum and incubated overnight at 30° C. with shaking at 250 rpm until the OD600 reached about 0.5. Samples were withdrawn from the culture for measurement of OD600 using a spectrophotometer and glucose concentration using HPLC.
The resulting seed culture was divided into eight 125 mL flasks as follows. Into one flask, which served as a control, 100 mL of the seed culture was added. Into the remaining seven flasks, 75 mL of the seed culture and 25 mL of the solvent to be tested was added.

[2] = tested on: Lactobacillus plantarum strain PN0512; test: Growth of Lactobacillus plantarum in the presence of isobutanol and oleyl alcohol (shake flask); type: cell-based
Experimental: The glucose consumption rate and the growth rate of Lactobacillus plantarum strain PN0512 were measured in shake flask cultures containing a high concentration of isobutanol in the presence of oleyl alcohol (Example 4) and the absence of oleyl alcohol (Example 5, Comparative).
Three seed shake flasks containing 50 mL of de Man-Rogosa-Sharpe (MRS) medium were inoculated with 200, 500, and 1000 μL, respectively, of Lactobacillus plantarum strain PN0512 inoculum (ATCC: PTA-7727, biological deposit made Jul. 12, 2006 for U.S. patent application Ser. No. 11/761,497). The flasks were incubated overnight at 30° C. with shaking at 250 rpm until the OD600 was between 2 and 5. A 1-L flask containing 600 mL of MRS medium was inoculated from one of the above seed flasks having an OD600=3 to an initial OD600=0.1 and cultivated at 30° C. with shaking at 180 rpm. After 4 to 5 hours of cultivation, the OD600 was between 0.5 and 1.0. Samples were withdrawn from each culture and the OD600 and glucose concentration were measured as described above.
To a 125 mL flask was added 100 mL of the culture from the above mentioned 1-L flask (Example 3, Comparative). To another 125 mL flask was added 75 mL of the culture and 25 mL of oleyl alcohol (i.e., 25 vol %) (Example 2). The flasks were incubated at 30° C. with shaking at 100 rpm. Samples were withdrawn for OD600 and glucose measurement. When the OD600 reached about 1.5, isobutanol was added to both flasks to a final concentration of 30 g/L of the aqueous phase. A third flask containing 75 mL of the culture and 25 vol % of oleyl alcohol, but no added isobutanol, served as a positive control. Samples were withdrawn from all flasks at various times for the determination of OD600 and glucose concentration.

[3] = tested on: Saccharomyces cerevisiae BY4741; test: Growth of Saccharomyces cerevisiae in the presence of isobutanol and oleyl alcohol (shake flask); type: cell-based
Experimental: The glucose consumption rate and the growth rate of wild-type Saccharomyces cerevisiae BY4741 strain were measured in shake flask cultures containing a high concentration of isobutanol in the presence of oleyl alcohol (Example 2) and the absence of oleyl alcohol (Example 3, Comparative).
Three seed shake flasks containing 600 mL of YPD medium were inoculated with 100, 300, and 1000 μL of Saccharomyces cerevisiae BY4741 inoculum, respectively. The flasks were incubated overnight at 30° C. with shaking at 250 rpm until the OD600 reached about 0.1. Samples were withdrawn from each culture and the OD600 and glucose concentration were measured as described above.
To a 125 mL flask was added 100 mL of the culture which was derived from the 300 μL inoculum (Example 3, Comparative). To another 125 mL flask was added 75 mL of the culture and 25 mL of oleyl alcohol (i.e., 25 vol %) (Example 2). The flasks were incubated at 30° C. with shaking at 100 rpm. Samples were withdrawn for OD600 and glucose measurement. When the OD600 reached about 0.4, isobutanol was added to both flasks to a final concentration of 30 g/L of the aqueous phase. A third flask containing 75 mL of the culture and 25 vol % of oleyl alcohol, but no added isobutanol, served as a positive control. Samples were withdrawn from all flasks at various times for the determination of OD600 and glucose concentration.

[4] = Activity of the enzyme expressed from the sadB gene in cell-free extracts; type: biochemical, Achromobacter xylosoxidans; conditions: cell-free extracts of Mach1/pTrc99a::sadB, isobutyraldehyde as the standard
Experimental: The sadB coding region was then cloned into the vector pTrc99a (Amann et al., Gene 69: 301-315, 1988). The pCR4Blunt::sadB was digested with EcoRI, releasing the sadB fragment, which was ligated with EcoRI-digested pTrc99a to generate pTrc99a::sadB. This plasmid was transformed into E. coli Mach 1 cells and the resulting transformant was named Mach1/pTrc99a::sadB. The activity of the enzyme expressed from the sadB gene in these cells was determined to be 3.5 mmol/min/mg protein in cell-free extracts when analyzed using isobutyraldehyde as the standard.

[5] = Time 3 h after isobutanol addition
[6] = Time 4 h after isobutanol addition
[7] = Time 5 h after isobutanol addition
[8] = Time 14 h after isobutanol addition
[9] = isobutanol 30 g/L in the absence of oleyl alcohol
[10] = 25 vol % oleyl alcohol, isobutanol 30 g/L

CCCCCCCC(=O)O [octanoic acid]
Biocompatibility of the solvent (growth and glucose utilization versus control without solvent) [1]: inhibited growth and glucose utilization | Glucose ([1]; t = 0): 17.5 g/L | OD600 ([1]; t = 0): 0.5 | OD600 ([1]; t = 4): 0.8 | Glucose ([1]; t = 2 h): 17.1 g/L | OD600 ([1]; t = 2 h): 0.9 | Glucose ([1]; t = 4 h): 17.6 g/L | Glucose ([1]; t = 6 h): 19.2 g/L | OD600 ([1]; t = 6 h): 0.7 | Glucose ([1]; t = 24 h): 18.5 g/L | OD600 ([1]; t = 24 h): 1.0

CC(C)CO [Example 5, isobutanol]
Glucose ([2]; Time 0 h (isobutanol addition)): 12.7 g/L | OD600 ([2]; Time 0 h (isobutanol addition)): 5.7 | Glucose [2, 5]: 11.7 g/L | OD600 [2, 5]: 6.8 | Glucose [2, 6]: 11.7 g/L | OD600 [2, 6]: 6.9 | Glucose [2, 7]: 11.7 g/L | OD600 [2, 7]: 7.2 | Glucose [2, 8]: 11.6 g/L | OD600 [2, 8]: 5.3

CCCCCCCCC=O [Solvent 1-nonanal, 1-nonanal]
Biocompatibility of the solvent (growth and glucose utilization versus control without solvent) [1]: inhibited growth and glucose utilization | Glucose ([1]; t = 0): 17.5 g/L | OD600 ([1]; t = 0): 0.5 | OD600 ([1]; t = 4): 0.7 | Glucose ([1]; t = 2 h): 16.6 g/L | OD600 ([1]; t = 2 h): 0.7 | Glucose ([1]; t = 4 h): 17.0 g/L | Glucose ([1]; t = 6 h): 17.8 g/L | OD600 ([1]; t = 6 h): 0.8 | Glucose ([1]; t = 24 h): 17.6 g/L | OD600 ([1]; t = 24 h): 1.8

CCCCCCCC/C=C\CCCCCCCC(=O)O [oleic acid]
Biocompatibility of the solvent (growth and glucose utilization versus control without solvent) [1]: biocompatible | Glucose ([1]; t = 0): 17.5 g/L | OD600 ([1]; t = 0): 0.5 | OD600 ([1]; t = 4): 1.7 | Glucose ([1]; t = 2 h): 19.0 g/L | OD600 ([1]; t = 2 h): 0.8 | Glucose ([1]; t = 6 h): 2.2 g/L | OD600 ([1]; t = 6 h): 2.8 | Glucose ([1]; t = 24 h): 0.0 g/L | OD600 ([1]; t = 24 h): 4.4

CCCCCCCCCCO [Solvent 1-decanol, 1-decanol]
Biocompatibility of the solvent (growth and glucose utilization versus control without solvent) [1]: inhibited growth and glucose utilization | Glucose ([1]; t = 0): 17.5 g/L | OD600 ([1]; t = 0): 0.5 | OD600 ([1]; t = 4): 0.7 | Glucose ([1]; t = 2 h): 16.6 g/L | OD600 ([1]; t = 2 h): 0.5 | Glucose ([1]; t = 4 h): 17.0 g/L | Glucose ([1]; t = 6 h): 17.8 g/L | OD600 ([1]; t = 6 h): 0.6 | Glucose ([1]; t = 24 h): 17.6 g/L | OD600 ([1]; t = 24 h): 0.8

CCCCCCCCCO [nonanol, 1-nonanol]
Biocompatibility of the solvent (growth and glucose utilization versus control without solvent) [1]: inhibited growth and glucose utilization | Glucose ([1]; t = 0): 17.5 g/L | OD600 ([1]; t = 0): 0.5 | OD600 ([1]; t = 4): 0.7 | Glucose ([1]; t = 2 h): 17.0 g/L | OD600 ([1]; t = 2 h): 0.5 | Glucose ([1]; t = 4 h): 16.9 g/L | Glucose ([1]; t = 6 h): 18.1 g/L | OD600 ([1]; t = 6 h): 0.6 | Glucose ([1]; t = 24 h): 17.8 g/L | OD600 ([1]; t = 24 h): 0.7

CC(C)CO [Example 3, isobutanol]
Glucose ([3]; Time 0 h (isobutanol addition)): 18.9 g/L | OD600 ([3]; Time 0 h (isobutanol addition)): 0.4 | Glucose [3, 5]: 17.5 g/L | OD600 [3, 5]: 0.6 | Glucose [3, 6]: 17.7 g/L | OD600 [3, 6]: 0.7 | Glucose [3, 7]: 17.4 g/L | OD600 [3, 7]: 0.6 | Glucose [3, 8]: 17.4 g/L | OD600 [3, 8]: 0.6

CC(C)CO [isobutanol]
Effect on glucose utilization and biomass growth [3, 9]: almost completely inhibited glucose utilization and biomass growth | Effect on glucose utilization and biomass growth [2, 9]: almost completely inhibited glucose utilization and biomass growth

CCCCCCCC/C=C\CCCCCCCCO [oleyl alcohol]
Biocompatibility of the solvent (growth and glucose utilization versus control without solvent) [1]: biocompatible | Glucose ([1]; t = 0): 17.5 g/L | OD600 ([1]; t = 0): 0.5 | OD600 ([1]; t = 4): 2.0 | Glucose ([1]; t = 2 h): 15.3 g/L | OD600 ([1]; t = 2 h): 1.0 | Glucose ([1]; t = 4 h): 10.4 g/L | Glucose ([1]; t = 6 h): 3.4 g/L | OD600 ([1]; t = 6 h): 2.4 | Glucose ([1]; t = 24 h): 0.0 g/L | OD600 ([1]; t = 24 h): 3.5 | Effect of oleyl alcohol on isobutanol toxicity [3, 10]: mitigates the toxicity of isobutanol | Effect of oleyl alcohol on isobutanol toxicity [2, 10]: mitigates the toxicity of isobutanol

CCCCCCCCCCCCO [Solvent 1-dodecanol, 1-dodecanol]
Biocompatibility of the solvent (growth and glucose utilization versus control without solvent) [1]: biocompatible | Glucose ([1]; t = 0): 17.5 g/L | OD600 ([1]; t = 0): 0.5 | OD600 ([1]; t = 4): 1.6 | Glucose ([1]; t = 2 h): 15.4 g/L | OD600 ([1]; t = 2 h): 0.9 | Glucose ([1]; t = 4 h): 11.6 g/L | Glucose ([1]; t = 6 h): 3.9 g/L | OD600 ([1]; t = 6 h): 2.8 | Glucose ([1]; t = 24 h): 0.0 g/L | OD600 ([1]; t = 24 h): 4.2

CCCCCCCC/C=C\CCCCCCCCO [Control, oleyl alcohol]
Glucose ([3]; Time 0 h (isobutanol addition)): 19.7 g/L | OD600 ([3]; Time 0 h (isobutanol addition)): 0.4 | Glucose [3, 5]: 16.0 g/L | OD600 [3, 5]: 0.6 | Glucose [3, 6]: 12.9 g/L | OD600 [3, 6]: 1.7 | Glucose [3, 7]: 9.2 g/L | OD600 [3, 7]: 2.5 | Glucose [3, 8]: 0.3 g/L | OD600 [3, 8]: 3.3 | Glucose ([2]; Time 0 h (isobutanol addition)): 12.9 g/L | OD600 ([2]; Time 0 h (isobutanol addition)): 5.6 | Glucose [2, 5]: 7.4 g/L | OD600 [2, 5]: 8.9 | Glucose [2, 6]: 4.5 g/L | OD600 [2, 6]: 10.4 | Glucose [2, 7]: 1.9 g/L | OD600 [2, 7]: 14.1 | Glucose [2, 8]: 0 g/L | OD600 [2, 8]: 8.8

B1: sadB: butanol dehydrogenase from Achromobacter xylosoxidans (protein SEQ ID NO:10), expressed in E. coli Mach1/pTrc99a::sadB (protein)
chain: MKALVYHGDHKISLEDKPKPTLQKPTDVVVRVLKTTICGTDLGIYKGKNPEVADGRILGHEGVGVIEEVGESVTQFKKGDKVLISCVTSCGSCDYCKKQLYSHCRDGGWILGYMIDGVQAEYVRIPHADNSLYKIPQTIDDEIAVLLSDILPTGHEIGVQYGNVQPGDAVAIVGAGPVGMSVLLTAQFYSPSTIIVIDMDENRLQLAKELGATHTINSGTENVVEAVHRIAAEGVDVAIEAVGIPATWDICQEIVKPGAHIANVGVHGVKVDFEIQKLWIKNLTITTGLVNTNTTPMLMKVASTDKLPLKKMITHRFELAEIEHAYQVFLNGAKEKAMKIILSNAGAA
modifications: Achromobacter xylosoxidans
activity of the enzyme expressed from the sadB gene [4]: 3.5 mmol/min/mg protein
